# Reference: patent publication US11078198B2 (BRISTOL-MYERS SQUIBB COMPANY, priority 2017, dated 2021)
# Molecular target: T1, human FXR (Homo sapiens, UniProt Q96RI1)
# T1 construct: expressed in transfected cells; host or cells: HEK293 cells stably carrying a 5xGal4-response-element firefly luciferase reporter, transiently transfected with pcDNA3.1-Gal4-FXR
# T1 sequence (Q96RI1 262-486 limits assumed): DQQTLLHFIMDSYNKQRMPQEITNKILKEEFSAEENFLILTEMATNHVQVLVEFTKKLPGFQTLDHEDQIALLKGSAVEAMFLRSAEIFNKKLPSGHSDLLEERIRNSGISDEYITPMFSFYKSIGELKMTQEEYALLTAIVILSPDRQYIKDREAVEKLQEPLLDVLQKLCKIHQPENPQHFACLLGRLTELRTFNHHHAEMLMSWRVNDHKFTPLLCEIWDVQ
# Assay: transient human FXR/Gal4-luciferase reporter assay
# Assay type: cell-based
# Settings: Gal4-hFXR transfected HEK293 reporter cells; relative to 8 μM GW-4064
# Method: A Gal4-hFXR fusion construct reporter system was used as the primary assay to characterize compound activity. A construct including 5 copies of the Gal4 promoter response element upstream of a firefly luciferase reporter cDNA was stably expressed in HEK293 cells. This reporter cell line was maintained in Dulbecco's Modified Eagle's medium (DMEM; Gibco) supplemented with 1% penicillin-streptomycin (P/S) solution, 500 μg/mL Zeocin and 10% charcoal/dextran-treated fetal bovine serum (cs-FBS) at 37° C. in a humidified 5% CO2 atmosphere. Another plasmid was constructed in which the human cytomegalovirus promoter in the pcDNA3.1 vector directs the expression of the cDNA encoding a fusion protein comprised of the DNA binding domain from the Gal4 transcription factor fused to the ligand binding domain from human FXR.
# The day prior to transfection, the reporter cells in culture are detached from the plate with trypsin and plated into a T75 flask at a sufficient density to achieve approximately 90% confluence the next morning. The transfection reagents are prepared by separately diluting 25 μg of the pcDNA3.1-Gal4-FXR plasmid into 1.87 mL of Opti-MEM (Thermo-Fisher), and 40 μL of Lipofectamine 2000 (Thermo-Fisher) into 1.87 mL of Opti-MEM, and then adding the diluted DNA solution into the diluted Lipofectamine 2000 solution and incubating at room temperature for 15-20 minutes. The mixture is further diluted with 10 mL of a solution comprised of DMEM, 10% cs-FBS, and 1% P/S immediately prior to transferring to the cells. The maintenance culture media is aspirated from the cells and the final transfection mixture is added before the cells are incubated overnight at 37° C. in a humidified 5% CO2 atmosphere. This protocol can be scaled up, and the transiently transfected cells can be cryopreserved in an assay-ready format.
# For compound testing, 100 nL of the compounds (serial dilutions in DMSO) are dispensed with an Echo acoustic dispenser (Labcyte) into the wells of a Corning/Costar clear bottom 384-well white plate. The transfected cells are harvested, counted, and diluted such that 10-25,000 cells in 25 μL are plated into each well of the 384-well compound assay plate. The compound-treated cells are incubated overnight at 37° C. in a humidified 5% CO2 atmosphere.
row,EC50,Structure (SMILES)
1,4800 nM,"CC(C)(C)OC(=O)N1CCC2(CC1)COC(c1c(-c3c(Cl)cccc3Cl)noc1C1CC1)O2 (racemic) [(±)-tert-Butyl 2-(5-cyclopropyl-3-(2,6-dichlorophenyl)isoxazol-4-yl)-1,3-dioxa-8-azaspiro[4.5]decane-8-carboxylate]"
2,240 nM,"O=C(O)c1cc(F)c2nc(N3CCC4(C=C(c5c(-c6c(Cl)cccc6Cl)noc5C5CC5)CO4)CC3)sc2c1 [Example 3, 2-(3-(5-Cyclopropyl-3-(2,6-dichlorophenyl)isoxazol-4-yl)-1-oxa-8-azaspiro[4.5]dec-3-en-8-yl)-4-fluorobenzo[d]thiazole-6-carboxylic acid]"
3,712 nM,"O=C(O)c1cccc(N2CCC3(C=C(c4c(-c5c(Cl)cccc5Cl)noc4C4CC4)C3)CC2)n1 [Example 4, 6-(2-(5-Cyclopropyl-3-(2,6-dichlorophenyl)isoxazol-4-yl)-7-azaspiro[3.5]non-1-en-7-yl) picolinic acid]"
4,313 nM,"O=C(O)c1ccc(N2CCC3(C=C(c4c(-c5c(Cl)cccc5Cl)noc4C4CC4)C3)CC2)nn1 [Example 5, 6-(2-(5-Cyclopropyl-3-(2,6-dichlorophenyl)isoxazol-4-yl)-7-azaspiro[3.5]non-1-en-7-yl)pyridazine-3-carboxylic acid]"
5,47 nM,"Cn1cc(C(=O)O)c2cnc(N3CCC4(C=C(c5c(-c6c(Cl)cccc6Cl)noc5C5CC5)C4)CC3)nc21 [Example 6, 2-(2-(5-Cyclopropyl-3-(2,6-dichlorophenyl)isoxazol-4-yl)-7-azaspiro[3.5]non-1-en-7-yl)-7-methyl-7H-pyrrolo[2,3-d]pyrimidine-5-carboxylic acid]"
6,24 nM,"Cn1cc(C(=O)O)c2ccc(N3CCC4(C=C(c5c(-c6c(Cl)cccc6Cl)noc5C5CC5)C4)CC3)nc21 [Example 7, 6-(2-(5-Cyclopropyl-3-(2,6-dichlorophenyl)isoxazol-4-yl)-7-azaspiro[3.5]non-1-en-7-yl)-1-methyl-1H-pyrrolo[2,3-b]pyridine-3-carboxylic acid]"
7,4200 nM,"O=C(O)c1cccc(N2CCC3(C=C(c4c(-c5c(Cl)cccc5Cl)noc4C4CC4)C3)CC2)c1 [Example 9, 3-(2-(5-Cyclopropyl-3-(2,6-dichlorophenyl)isoxazol-4-yl)-7-azaspiro[3.5]non-1-en-7-yl)benzoic acid]"
8,135 nM,"O=C(O)c1ccc(N2CCC3(C=C(c4c(-c5c(Cl)cccc5Cl)noc4C4CC4)C3)CC2)cc1 [Example 10, 4-(2-(5-Cyclopropyl-3-(2,6-dichlorophenyl)isoxazol-4-yl)-7-azaspiro[3.5]non-1-en-7-yl)benzoic acid]"
9,885 nM,"O=C(O)c1ccc(N2CCC3(C=C(c4c(-c5ccccc5Cl)noc4C4CC4)C3)CC2)cc1 [Example 14, 4-(2-(3-(2-Chlorophenyl)-5-cyclopropylisoxazol-4-yl)-7-azaspiro[3.5]non-1-en-7-yl)benzoic acid]"
10,1500 nM,"O=C(O)c1ccc(N2CCC3(C=C(c4c(-c5ccccc5OC(F)(F)F)noc4C4CC4)C3)CC2)nn1 [Example 18, 6-(2-(5-Cyclopropyl-3-(2-(trifluoromethoxy)phenyl)isoxazol-4-yl)-7-azaspiro[3.5]non-1-en-7-yl)pyridazine-3-carboxylic acid]"
11,110 nM,"O=C(O)c1cnc(N2CCC3(C=C(c4c(-c5c(Cl)cccc5Cl)noc4C4CC4)C3)CC2)cn1 [Example 19, 5-(2-(5-Cyclopropyl-3-(2,6-dichlorophenyl)isoxazol-4-yl)-7-azaspiro[3.5]non-1-en-7-yl) pyrazine-2-carboxylic acid]"
12,770 nM,"O=C(O)c1ccc(N2CCC3(C=C(c4c(-c5ccccc5OC(F)(F)F)noc4C4CC4)C3)CC2)nc1 [Example 21, 6-(2-(5-Cyclopropyl-3-(2-(trifluoromethoxy)phenyl)isoxazol-4-yl)-7-azaspiro[3.5]non-1-en-7-yl) nicotinic acid]"
13,1500 nM,"O=C(O)c1ncc(N2CCC3(C=C(c4c(-c5c(Cl)cccc5Cl)noc4C4CC4)C3)CC2)cn1 [Example 22, 5-(2-(5-Cyclopropyl-3-(2,6-dichlorophenyl)isoxazol-4-yl)-7-azaspiro[3.5]non-1-en-7-yl) pyrimidine-2-carboxylic acid]"
14,17 nM,"O=C(O)c1ccc2nc(N3CCC4(C=C(c5c(-c6c(Cl)cccc6Cl)noc5C5CC5)C4)CC3)sc2c1 [Example 24, 2-(2-(5-Cyclopropyl-3-(2,6-dichlorophenyl)isoxazol-4-yl)-7-azaspiro[3.5]non-1-en-7-yl)benzo[d]thiazole-6-carboxylic acid]"
15,1020 nM,"Cn1c(N2CCC3(C=C(c4c(-c5c(Cl)cccc5Cl)noc4C4CC4)C3)CC2)nc2cc(C(=O)O)ccc21 [Example 25, 2-(2-(5-Cyclopropyl-3-(2,6-dichlorophenyl)isoxazol-4-yl)-7-azaspiro[3.5]non-1-en-7-yl)-1-methyl-1H-benzo[d]imidazole-5-carboxylic acid]"
16,157 nM,"O=C(O)c1ccc2oc(N3CCC4(C=C(c5c(-c6c(Cl)cccc6Cl)noc5C5CC5)C4)CC3)nc2c1 [Example 26, 2-(2-(5-Cyclopropyl-3-(2,6-dichlorophenyl)isoxazol-4-yl)-7-azaspiro[3.5]non-1-en-7-yl)benzo[d]oxazole-5-carboxylic acid]"
17,1100 nM,"O=C(O)c1cnc(N2CCC3(C=C(c4c(-c5ccccc5OC(F)(F)F)noc4C4CC4)C3)CC2)c(F)c1 [Example 27, 6-(2-(5-Cyclopropyl-3-(2-(trifluoromethoxy)phenyl)isoxazol-4-yl)-7-azaspiro[3.5]non-1-en-7-yl)-5-fluoronicotinic acid]"
18,453 nM,"O=C(O)c1cnc(N2CCC3(C=C(c4c(-c5c(Cl)cccc5Cl)noc4C4CC4)C3)CC2)c(F)c1 [Example 28, 6-(2-(5-Cyclopropyl-3-(2,6-dichlorophenyl)isoxazol-4-yl)-7-azaspiro[3.5]non-1-en-7-yl)-5-fluoronicotinic acid]"
19,110 nM,"O=C(O)c1ccc(N2CCC3(C=C(c4c(-c5ccccc5C(F)(F)F)noc4C4CC4)C3)CC2)nc1 [Example 30, 6-(2-(5-Cyclopropyl-3-(2-(trifluoromethyl)phenyl)isoxazol-4-yl)-7-azaspiro[3.5]non-1-en-7-yl) nicotinic acid]"
20,5300 nM,"O=C(O)CNC(=O)c1ccc(N2CCC3(C=C(c4c(-c5ccccc5C(F)(F)F)noc4C4CC4)C3)CC2)nc1 [Example 31, (6-(2-(5-Cyclopropyl-3-(2-(trifluoromethyl)phenyl)isoxazol-4-yl)-7-azaspiro[3.5]non-1-en-7-yl)nicotinoyl)glycine]"
21,1500 nM,"O=C(O)CNC(=O)c1cc(F)c2nc(N3CCC4(C=C(c5c(-c6ccccc6C(F)(F)F)noc5C5CC5)C4)CC3)sc2c1 [Example 32, (2-(2-(5-Cyclopropyl-3-(2-(trifluoromethyl)phenyl)isoxazol-4-yl)-7-azaspiro[3.5]non-1-en-7-yl)-4-fluorobenzo[d]thiazole-6-carbonyl)glycine]"

row,Structure (SMILES),EC50
1,"O=C(O)c1cc(F)c2nc(N3[C@@H]4CC[C@H]3CC3(C=C(c5c(-c6c(Cl)cccc6Cl)noc5C5CC5)C3)C4)sc2c1 (mixture of isomers) [Example 11, 2-(3′-(5-Cyclopropyl-3-(2,6-dichlorophenyl)isoxazol-4-yl)-8-azaspiro[bicyclo[3.2.1]octane-3,1′-cyclobutan]-2′-en-8-yl)-4-fluorobenzo[d]thiazole-6-carboxylic acid]",189 nM
2,"O=C(O)c1ccc(N2[C@@H]3CC[C@H]2CC2(C=C(c4c(-c5c(Cl)cccc5Cl)noc4C4CC4)C2)C3)nc1 (mixture of isomers) [Example 12, 6-(3′-(5-Cyclopropyl-3-(2,6-dichlorophenyl)isoxazol-4-yl)-8-azaspiro[bicyclo[3.2.1]octane-3,1′-cyclobutan]-2′-en-8-yl)nicotinic acid]",182 nM
3,"O=C(O)c1cc(F)c2nc(N3C4CCC3CC3(CC(c5c(-c6c(Cl)cccc6Cl)noc5C5CC5)C3)C4)sc2c1 (stereo not shown) [Example 15, 2-(3′-(5-Cyclopropyl-3-(2,6-dichlorophenyl)isoxazol-4-yl)-8-azaspiro[bicyclo[3.2.1]octane-3,1′-cyclobutan]-8-yl)-4-fluorobenzo[d]thiazole-6-carboxylic acid]",301 nM
4,"O=C(O)c1ccc(N2C3CCC2CC2(CC(c4c(-c5c(Cl)cccc5Cl)noc4C4CC4)C2)C3)nc1 (stereo not shown) [Example 16, 6-(3′-(5-Cyclopropyl-3-(2,6-dichlorophenyl)isoxazol-4-yl)-8-azaspiro[bicyclo[3.2.1]octane-3,1′-cyclobutan]-8-yl)nicotinic acid]",646 nM
